Data: patent US20240109855A1, “ANTI-QUORUM SENSING, ANTI-BIOFILM, AND INFLAMMATION ATTENUATING COMPOUNDS, COMPOSITIONS, AND METHODS OF USING SAME” (priority 2021, published 2024)
“Also recorded” adds a separate entry of the source. Read-outs that look alike come from different tables or passages of the source.

Columns and labels:
in vitro = assay: in vitro
Procedure: (§1) The human Hodgkin's Lymphoma derived L428 cell line was used as a model. The cells were grown in RPMI Medium 1640 with 10% FBS, 1% Glutamine and pen-strep (all from Biological Industries, Israel). […] Thirty thousand (30,000) cells/well were placed in 96-well plates with the coumaperine derivatives at different concentrations or with vehicle (DMSO) at a final volume of 200 μl. The plates were incubated for 48 hrs. at 37° C. and 5% CO2 followed by the addition of 50 μl of the XTT reagent tetrazolium-formazan, (Biological Industries, Israel) was added for 2 hrs. at 37° C., 5% CO2. In living cells, mitochondria […] the tetrazolium-formazan salt, thereby generating a color absorbing product at 450 nm. Absorbance was measured at 450 nm and 650 nm in an enzyme-linked immunosorbent assay (ELISA) plate reader (Multiskan Spectrum, Version 1.2), and recorded. Absorption values at 650 nm were subtracted from the blank and the 450 nm values. The results were normalized to the control (treated with DMSO).
(§2) Viability was determined in triplicate in two independent tests. The results were normalized to vehicle (DMSO) treated cells, (100% viability). Mean+SD.

[1] = test system: Agrobacterium tumefaciens (KYC55); assay: Quorum sensing inhibition test with bio-reporter KYC55 (TLC overlay); assay type: cell-based; settings: for Degree of QSI of KYC55: Table 1, coumaperine derivatives, 40 mM in ~20 μL acetonitrile dried on TLC plate, overnight, color intensity; for QSI activity against KYC55, in words: running text; on Degree of QSI of KYC55: key: −: no inhibition; +: low inhibition; ++: medium inhibition; +++: strong inhibition; on Degree of quorum sensing inhibition (QSI), KYC55: key: −: no inhibition; +: low inhibition; ++: medium inhibition; +++: strong inhibition
Procedure: (§3) TLC preparation: all derivatives were dissolved in 100% acetonitrile to a concentration of 40 mM. Then placed 20 μlon the same spot on the TLC and let the solvent evaporate before use. CV026: few colonies were transferred to liquid LB (Lenox) for overnight incubation at 30° C. in a 45 degree in orbital shaker. At the O.D. 0.8 3 ml of the starter was added to preheated soft LB agar containing 500 nM of 3-oxo-C6 (Sigma-Aldrich). The mixture was then loaded on the TLC in a glass plate for O.N. incubation in 30° C. The next day inhibition zone was measured, while QS is taking place bacteria produce purple pigment, and when QS is inhibited no pigment is produced. KYC55 (pJZ372) (pJZ384) (pJZ410): 20 μl from the frozen stock into 25 ml AT media (AT buffer×20: 1.57 M KH2PO4 pH=7.3. AT salts mix×20: 300 mM (NH4)2SO4, 13 mM MgSO4, 1.4 mM CaCl2, 0.4 mM FeSO4·7H2O, 0.26 mM MnSO4·H2O. AT media: 50 ml×20 AT-buffer, 50 ml×20 AT-salts, 10 ml 50% (w/v) glucose, add 890 ml to final volume of 1 liter.) For O.N. at 30° C. in an orbital shaker. Into preheated water agar with 25 ml AT-buffer, and 60 μg/ml X-gal and 5 nM 3-oxo-c8 (both from Sigma-Aldrich) 25 ml of the starter was added. Then, that mixture was loaded on the TLC in glass plate for O.N. incubation in 30° C. The next day the inhibition zone was measured. The bacteria produce blue pigment during QS and when QS is inhibited no pigment is produced. KYC55 (pJZ372) (pJZ384) (pJZ410) preservation in tetracycline (1 μg/ml), spectinomycin (100 μg/ml), gentamicin (100 μg/ml) (all antibiotics from Sigma Aldrich) in AT media O.N. then centrifuged and suspend in 15% glycerol frozen and maintained at −80° C.

[2] = test system: Chromobacterium violaceum (CV026); assay: Quorum sensing inhibition test with bio-reporter CV026 (TLC overlay); assay type: cell-based; settings: for Degree of QSI of CV026: Table 1, coumaperine derivatives, 40 mM in ~20 μL acetonitrile dried on TLC plate, overnight, color intensity; for QSI activity against CV026, in words: running text; on Degree of QSI of CV026: key: −: no inhibition; +: low inhibition; ++: medium inhibition; +++: strong inhibition; on Degree of quorum sensing inhibition (QSI), CV026: key: −: no inhibition; +: low inhibition; ++: medium inhibition; +++: strong inhibition
Procedure: as §3

[3] = test system: quorum sensing (CV026 and KYC55); assay: Quorum sensing inhibition, overall statement over the bio-reporter bacteria; assay type: cell-based; settings: for QSI activity overall, in words: running text; for QSI: Table 6 summary
Procedure: as §3
All the synthesized compounds were evaluated for quorum sensing inhibition against two bioreporter bacteria strains, Chromobacterium violaceum (CV026) and Agrobacterium tumefaciens (KYC55) and the results are summarized in Table 1.

L428 cells = assay: in vitro
Procedure: as §1, §2

[4] = test system: gram-positive and gram-negative bacteria; assay: Antibacterial activity, overall statement (diffusion discs test); assay type: cell-based; settings: for Antibacterial: Table 6 summary; for Antibacterial activity, in words: running text
Procedure: All derivatives were dissolved in acetonitrile to a final concentration of 40 mM. Twenty (20) μl were loaded onto Whatman filter paper discs and dried. Bacillus subtilis, Staphylococcus aureus, and Acinetobacter baumannii were grown in LB (Lenox) O.N. One hundred (100) μl from the starter culture was plated on LB agar (Miller) dishes. Streptococcus sobrinus, and Streptococcus mutans grown in Brain Heary Infusion (BHI, Himedia) O.N. were similarly plated on BHI agar dishes. Discs were laid and incubated O.N. in 37° C. and the diameter of inhibition of bacterial growth was measured.
The antibacterial activities of derivatives showing QSI are outlined in Table 4. […] Similar to that idea, synthetic derivatives of furanon (product of marine algae) shown in-vivo QSI activity without antibacterial activity followed by immune response of the infected animal. Phenolic compounds decrease QS and virulence in PA01 and Chromobacterium violaceum. There is increasing number of studies, searching for compounds that targeting non-vital processes to combat bacteria.

NF-kB = assay: NF-kB-luciferase reporter gene assay in L428 cells; assay type: cell-based, human; settings: Table 6 summary; further: key: +: active; −: inactive
Procedure: FIG. 7 includes a vertical bar graph showing a dose response of NF-kB activation according to an NF-kB reporter gene luciferase assay. L428 cells were stably transfected with the NF-kB luciferase reporter gene. The cells were incubated with the compounds at different concentrations for 2 hours. […] The results represent the percentage of NF-kB activation as compared to vehicle (DMSO) treated cells. All samples were normalized to protein concentration. Mean+SD, Two-way ANOVA and Tukey's multiple comparison test. 95% confidence interval (p-values *≤0.0332, **≤0.0021, ***≤0.0002).
L428 cells stable transfectants with the luciferase NF-kB-Luc reporter gene were generated previously described (Ozer et al., 2009), and were maintained in 500 μg/ml of G418 (G418 disulfate salt, Sigma-Aldrich). The cells (5×10^5 /well in triplicate) were incubated for 2 hrs. in 1 ml of medium containing the solvent (DMSO) or different concentrations of the molecules tested. Cells were then harvested, lysed, and monitored by a luciferase reporter assay kit (Promega) according to the manufacturer's instructions. Measurements were carried out using a luminometer (Promega, GLOMAX™ 20/20 Luminometer). Data were normalized to the protein concentration in each lysate as measured by the Bradford method (BioRad) and normalized to the control. Experiments were repeated at least three times.

[5] = Table 2, piperlongumine derivatives

Compound | Degree of QSI of KYC55 [1] | QSI activity against KYC55, in words [1] | Degree of QSI of CV026 [2] | QSI activity against CV026, in words [2] | QSI activity overall, in words [3] | Cytotoxic activity, in words (L428 cells) | QSI [3] | Antibacterial [4] | Anti-inflammatory (NF-kB) | LC50 (L428 cells) | also measured
COc1ccc(/C=C/C=C/C(=O)N2CCCCC2)cc1 [CP-38, (2E,4E)-5-(4-methoxyphenyl)-1-(piperidin-1-yl)penta-2,4-dien-1-one] | + | low | ++ | moderate |  |  |  |  |  |  | CC50 at 48 h (in vitro; human, LC50): 47.4 µM
O=C(/C=C/C=C/C=C/c1ccc2c(c1)OCO2)N1CCCCC1 [CP-155, (2E,4E,6E)-7-(benzo[d][1,3]dioxol-5-yl)-1-(piperidin-1-yl)hepta-2,4,6-trien-1-one] | − | inactive | − | inactive | do not inhibit |  |  |  |  |  | 
CC(=O)Oc1ccc(/C=C/C=C/C(=O)N2CCCCC2)cc1 [CP-158, 4-((1E,3E)-5-oxo-5-(piperidin-1-yl)penta-1,3-dienyl)phenyl acetate] | ++ |  | +++ | more effective against CV026 than KYC55 | anti QS activity | not cytotoxic | + | − | + |  | Cytotoxic (L428 cells): +; CC50 at 48 h (in vitro; human, LC50): 285 µM; Antibacterial activity, in words [4]: did not show antibiotic activity
COc1cc(/C=C/C=C/C(=O)N2CCCCC2)ccc1O [CP-205] | ++ | moderate activity; also recorded: moderately active | ++ | moderate activity; also recorded: moderately active |  | no cytotoxic activity | + | − | + | Non-toxic | Cytotoxic (L428 cells): −
O=C(/C=C/c1ccc2c(c1)OCO2)N1CCCCC1 [CP-215, (E)-3-(benzo[d][1,3]dioxol-5-yl)-1-(piperidin-1-yl)prop-2-en-1-one] |  | highly active |  | highly active | active; also recorded: strong |  | + | − | + | Non-toxic | Cytotoxic (L428 cells): −; QSI activity overall, in words ([3]; listed as CP215): anti QS activity; Antibacterial activity, in words [4]: did not show antibiotic activity
O=C(/C=C/c1ccc2c(c1)OCO2)N1CCCCC1 [CP-270, (E)-3-(benzo)-1-(piperidin-1-yl)prop-2-en-1-one] | +++ | highly QSI active | +++ | highly QSI active |  | no cytotoxic activity |  |  |  | Non-toxic | Antibacterial activity, in words [4]: did not
O=C(/C=C/c1ccc(F)cc1)N1CCCCC1 [CP-273] | − | inactive | + | low activity | low QSI |  |  |  |  | Non-toxic | 
COc1ccc(/C=C/C(=O)N2CCCCC2)cc1 [CP-282] | ++ |  | +++ | more effective against CV026 than KYC55 |  | no cytotoxic activity |  |  |  | Non-toxic | 
O=C(/C=C/c1ccc([N+](=O)[O-])cc1)N1CCCCC1 [CP-286] | ++ | moderate | + | low | anti QS activity |  | + | − | + | Non-toxic | Cytotoxic (L428 cells): −; Antibacterial activity, in words [4]: did not show antibiotic activity
COc1ccc(/C=C/C(=O)N2CCCCC2)cc1OC [CP-289] | +++ | more effective against KYC55 than CV026 | + |  |  | no cytotoxic activity |  |  |  | Non-toxic | 
COc1cc(CCC(=O)CC(=O)CCc2ccc(O)c(OC)c2)ccc1O [HCU, Tetrahydrocurcumin] |  |  |  |  |  |  | + | − | + |  | Cytotoxic activity, in words (L428 cells; L428 cells): cytotoxic; Cytotoxic (L428 cells; Table 6 summary): +; CC50 at 48 h (in vitro): 102 µM; Degree of quorum sensing inhibition (QSI), KYC55 ([1]; Table 3, curcumin derivatives): +++; Degree of quorum sensing inhibition (QSI), CV026 ([2]; Table 3, curcumin derivatives): +
COc1cc(/C=C/C(=O)N2CCC=CC2=O)cc(OC)c1OC [PL, Piperlongumine, reference compound] |  | inactive |  | inactive | inactive |  |  |  |  |  | Degree of quorum sensing inhibition (QSI), KYC55 [1, 5]: −; Degree of quorum sensing inhibition (QSI), CV026 [2, 5]: −
COc1cc(/C=C/C(=O)NCc2ccccc2)cc(OC)c1OC [PL-20, (E)-N-benzyl-3-(3,4,5-trimethoxyphenyl)acrylamide] |  | inactive |  | moderate activity |  |  |  |  |  | Non-toxic | Degree of quorum sensing inhibition (QSI), KYC55 [1, 5]: −; Degree of quorum sensing inhibition (QSI), CV026 [2, 5]: ++
COc1cc(/C=C/C(=O)CC(=O)/C=C/c2ccc(O)c(OC)c2)ccc1O [curcumin, Curcumin, reference compound] |  | inactive |  | low activity |  |  |  |  |  |  | Degree of quorum sensing inhibition (QSI), KYC55 ([1]; Table 3, curcumin derivatives): −; Degree of quorum sensing inhibition (QSI), CV026 ([2]; Table 3, curcumin derivatives): +
Piperine [reference compound] | − | inactive | − | inactive | do not inhibit |  |  |  |  |  | 
